Results as given in ChEMBL document CHEMBL3430912, “GSK Tres Cantos Anti-Kinetoplastid Screening (TCAKS) Data”.

How the values were obtained:
Leishmania donovani [1] = experiment: (§1) GSK_TCAKS: pIC50 Leishmania donovani Imaging: THP-1 Host Macrophages. Assay plates (384-well) were prepared by adding 250nL of compound to each well. For single shot assay, the final compound concentration was 5 uM. […] Automated image analysis was performed with a script developed on Acapella High Content Imaging and Analysis Software (PerkinElmer). Output: THP-1 cell count were reported for each well.; type: functional, organism-based, Homo sapiens
Trypanosoma cruzi [2] = experiment: (§2) GSK_TCAKS: pIC50 Trypanosoma cruzi Imaging: Amastigotes/Cell. […] Cells were then washed once with PBS before infection. T. cruzi trypomastigotes, collected at days 5 to 8 after infection from LLC-MK2 parasite infected cultures, were allowed to swim out for 4h at 37C from a centrifuged pellet (2,500 rpm/10 min/room temperature). Trypomastigotes were then collected and counted in a CASY Cell Counter. Trypomastigotes, in supplemented DMEM, were added to H9c2 cultures in a multiplicity of infection of 1 and incubated for 18 h. Cells were washed once with PBS before incubation of the infected H9c2 monolayer with trypsin (Life-Technologies) to detach cells from the flask. Cells were counted in a CASY Cell Counter using a 150 um capillary and their density set at 5 * 10^4 cells per mL in supplemented assay DMEM. Infected H9c2 were dispensed into 384-well poly-lysine coated assay plates at 50uL per well using a Multidrop Combi dispenser. After seeding them, the plates were incubated at 37C, 5% CO2 for 72h. Cultures were then fixed and stained by addition of 50 uL of a solution containing 8% formaldehyde and 4 uM DRAQ5 DNA dye (BioStatus, UK) per well. […] Five images were collected per well for reliable statistical analysis. Automated image analysis was performed with a script developed on Acapella High Content Imaging and Analysis Software (PerkinElmer). Output: number of amastigotes per cell as infection level measurement.; type: functional, organism-based, Rattus norvegicus; conditions: H9c2, 4 h
[3] = system: Trypanosoma brucei brucei; experiment: GSK_TCAKS: pIC50 Trypanosoma brucei viability assay using luminiscence. Assay plates (1536-well) were prepared. T. brucei cultures were harvested and counted in a CASY cell counter. A parasite suspension was prepared at a final concentration of 5 * 10^4 cells/mL in complete HMI9 medium and 6uL was dispensed to all wells containing compounds using a Multidrop Combi dispenser. 6uL of HMI9 media with 0.4% DMSO were dispensed to control columns. Plates were incubated for 24 h at 37C, 5% CO2 then tempered for 10 min at room temperature. ATP content was quantified by adding 4 uL of CellTiter-Glo Reagent (Promega) according to the manufacturer's instructions. Luminescence was measured using a ViewLux.; type: functional, organism-based; conditions: Lister 427, CASY
[4] = GSK_TCAKS: pIC50 HepG2 human cell line viability assay using luminiscence. […] Seeding density was checked to ensure that new mono-layers were not more than 50% confluent at the time of harvesting. Cell suspension was added to 500 mL of the same medium at a final density of 1.2 * 10^5 cells/mL. This cell suspension was dispensed (25 uL, 3000 cells per well) into 384-well clear-bottom plates using a Multidrop Combi dispenser. Prior to addition of the cell suspension, the screening compounds (250 nL) were pre-dispensed into the plates with an Echo liquid handler. Plates were incubated for 48 h at 37C, 5% CO2. After incubation, plates equilibrated at room temperature for 30 min before proceeding to develop the luminescent signal. The signal developer, CellTiter-Glo Reagent, was allowed to equilibrate at room temperature for 30 min and added to the plates (25uL per well) using a Multidrop Combi dispenser. Plates were left for 10 min at room temperature for stabilization and then read using a ViewLux.; type: toxicity, cell-based
Trypanosoma cruzi [5] = experiment: GSK_TCAKS: pIC50 Trypanosoma cruzi viability assay using beta-GAL activity. This assay was run at single shot at 5uM compound concentration per well. The biological reagents consisted of NIH-3T3 host cells and trypomastigotes parasitic cells; both cell types were set to a 3.3 * 10^5 cells/mL dilution in assay DMEM by means of a CASY cell counter device using a 60um capillary. 6 uL of the mixture were dispensed per well (about 1 * 10^3 host-cells and 1 * 10^3 parasites) with a Multidrop Combi dispenser. […] In all wells, the percentage of DMSO never exceeded 0.5%. Plates incubated for four days at 37C, 5% CO2. The substrate used for the assay fluorescence intensity (FLINT) readout was resorufin-beta-D-galactopiranoside (Sigma-Aldrich) at 5uM per well. It was diluted in PBS supplemented with the soft detergent Igepal (Fluka).; type: functional, organism-based, Mus musculus; conditions: Tulahuen, NIH3T3
Trypanosoma cruzi [6] = experiment: as §2, with “H2C9” for “Trypanosoma cruzi”, “H9c2 Host Cardiomyocytes.” for “Amastigotes/Cell.”, “Number” for “number”, “H9c2 Host Cardiomyocytes nuclei to determine drug-related cytotoxicity.” for “amastigotes per cell as infection level measurement.”; type: functional, organism-based, Rattus norvegicus; conditions: H9c2, 4 h
Leishmania donovani [7] = experiment: GSK_TCAKS: pIC50 Leishmania donovani viability assay using fluorescence intensity. Assay plates (1536-well) were prepared by adding 30nL per well of compound. For single shot assay, the final compound concentration was 5uM. […] Briefly, eGFP LdBOB axenic amastigotes were harvested, fixed and counted in a CASY cell counter (Roche-Applied Science). A final concentration of 1.5 * 10^5 cells per well were prepared in amastigote media containing 500 U/mL penicillin/streptomycin (Invitrogen) and 6uL was dispensed to each experimental well using a Multidrop Combi dispenser (Thermo Scientific). 6uL of assay media was dispensed to control columns used as reference for 100% compound response. Following incubation for 72 h at 37C, 5% CO2, 2 uL of resazurin was added to each well at a final concentration of 0.5 mM in phosphate buffered saline (PBS) with IGEPAL (Sigma-Aldrich), 0.05% (v/v).; type: functional, organism-based
Leishmania donovani [8] = experiment: as §1, with “Infected” for “THP-1 Host”, “Percent of infected macrophage cells” for “THP-1 cell count”; type: functional, organism-based, Homo sapiens; conditions: THP-1
Leishmania donovani [9] = experiment: as §1, with “Amastigotes/Macrophages.” for “THP-1 Host Macrophages.”, “Average number of amastigotes per macrophage” for “THP-1”, “cell” for “cell count”; type: functional, organism-based, Homo sapiens; conditions: THP-1
[10] = system: Trypanosoma brucei brucei; experiment: GSK_TCAKS: pIC50 Trypanosoma brucei viability assay using fluorescence intensity. Assay plates (1536-well) were prepared by dispensing 25nL of compound solution per well using an Echo acoustic dispenser (Labcyte).; type: functional, organism-based; conditions: Lister 427, 2 h
Trypanosoma cruzi [11] = experiment: GSK_TCAKS: pIC50 Trypanosoma cruzi Imaging: Infected Cells. […] Cells were then washed once with PBS before infection. T. cruzi trypomastigotes, collected at days 5 to 8 after infection from LLC-MK2 parasite infected cultures, were allowed to swim out for 4h at 37C from a centrifuged pellet (2,500 rpm/10 min/room temperature). Trypomastigotes were then collected and counted in a CASY Cell Counter. Trypomastigotes, in supplemented DMEM, were added to H9c2 cultures in a multiplicity of infection of 1 and incubated for 18 h. Cells were washed once with PBS before incubation of the infected H9c2 monolayer with trypsin (Life-Technologies) to detach cells from the flask. Cells were counted in a CASY Cell Counter using a 150 um capillary and their density set at 5 * 10^4 cells per mL in supplemented assay DMEM. Infected H9c2 were dispensed into 384-well poly-lysine coated assay plates at 50uL per well using a Multidrop Combi dispenser. After seeding them, the plates were incubated at 37C, 5% CO2 for 72h. Cultures were then fixed and stained by addition of 50 uL of a solution containing 8% formaldehyde and 4 uM DRAQ5 DNA dye (BioStatus, UK) per well. […] Five images were collected per well for reliable statistical analysis. Automated image analysis was performed with a script developed on Acapella High Content Imaging and Analysis Software (PerkinElmer). Output: percentage of infected cells per well as a second infection marker.; type: functional, organism-based, Rattus norvegicus; conditions: H9c2, 4 h
[12] = target: Sterol 14-alpha demethylase (Trypanosoma cruzi (strain CL Brener), UniProt Q7Z1V1); experiment: GSK_TCAKS: pIC50 CYP51 from Trypanosoma cruzi.; type: functional
Sequence of Sterol 14-alpha demethylase (Q7Z1V1 whole entry): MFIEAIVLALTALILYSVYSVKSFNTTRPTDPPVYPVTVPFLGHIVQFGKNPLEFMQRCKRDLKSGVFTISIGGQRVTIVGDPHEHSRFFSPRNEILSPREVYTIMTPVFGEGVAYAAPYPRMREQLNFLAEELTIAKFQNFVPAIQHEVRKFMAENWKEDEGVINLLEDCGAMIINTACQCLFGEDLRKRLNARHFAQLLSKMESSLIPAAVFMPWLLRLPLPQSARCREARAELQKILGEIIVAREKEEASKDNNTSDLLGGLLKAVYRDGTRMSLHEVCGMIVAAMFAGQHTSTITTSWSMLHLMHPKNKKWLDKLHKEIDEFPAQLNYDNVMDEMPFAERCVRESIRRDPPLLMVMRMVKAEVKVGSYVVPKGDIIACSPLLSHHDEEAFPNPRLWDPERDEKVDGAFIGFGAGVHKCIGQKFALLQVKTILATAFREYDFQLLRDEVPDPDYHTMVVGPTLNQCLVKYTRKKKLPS

SMILES	IC50 (Leishmania donovani [1])	IC50 (Trypanosoma cruzi [2])	IC50 [3]	IC50 at 48 h [4]	IC50 (Trypanosoma cruzi [5])	IC50 (Trypanosoma cruzi [6])	IC50 (Leishmania donovani [7])	IC50 (Leishmania donovani [8])	IC50 (Leishmania donovani [9])	IC50 [10]	IC50 (Trypanosoma cruzi [11])	IC50 [12]
COc1ccc(-c2cnc(NC(=O)c3ccc(F)cc3)n2C)cc1	> 50.1 µM	2 µM	3.16 µM	> 100 µM	2.51 µM	> 50.1 µM	3.16 µM	1.26 µM	0.501 µM	1.26 µM	5.01 µM	10 µM
O=C(O)[C@H]1C[C@@H]1c1ccc(-c2ccc(CN(CCc3ccccn3)C(=O)C3CCC3)cc2)cc1	> 50.1 µM	31.6 µM	0.794 µM	> 100 µM	> 50.1 µM	> 50.1 µM	25.1 µM	> 50.1 µM	> 50.1 µM	0.631 µM	31.6 µM	20 µM
CN(C)CCN(C)Cc1ccc(Cl)cc1NS(=O)(=O)c1ccc(Cl)c(Cl)c1	31.6 µM	2 µM	3.98 µM	31.6 µM	1.12 µM	5.01 µM	5.01 µM	6.31 µM	3.98 µM	7.94 µM	2 µM	31.6 µM
O=C(Nc1nc2ccccc2[nH]1)c1c(O)c2cccc3c2n(c1=O)CC3	> 50.1 µM	25.1 µM	20 µM	10 µM	20 µM	10 µM	2.51 µM	2 µM	1 µM	15.8 µM	15.8 µM	> 100 µM
N#Cc1ccc(C(=O)Nc2cccc(-c3cccc(CN4CCC(O)CC4)c3)c2)cc1	15.8 µM	7.94 µM	0.794 µM	39.8 µM	5.01 µM	31.6 µM	> 50.1 µM	15.8 µM	7.94 µM	0.794 µM	7.94 µM	25.1 µM
O=C(Nc1nc(-c2ccccn2)cs1)N1C[C@H]2C[C@@]2(c2ccccc2)C1	7.94 µM	0.251 µM	0.631 µM	25.1 µM	0.501 µM	0.794 µM	2 µM	0.501 µM	0.398 µM	0.501 µM	0.501 µM	39.8 µM
CN(C)S(=O)(=O)c1cccc(C(=O)Nc2nc(-c3ccccn3)cs2)c1	7.94 µM	1 µM	0.631 µM	> 100 µM	1.26 µM	7.94 µM	1.26 µM	6.31 µM	2.51 µM	0.501 µM	1.58 µM	31.6 µM
O=C(CCCNC(=O)c1ccc(Cl)cc1)Nc1nc(-c2ccccn2)cs1	> 50.1 µM	10 µM	12.6 µM	> 100 µM	6.31 µM	25.1 µM	> 50.1 µM	5.01 µM	3.16 µM	7.94 µM	25.1 µM	3.16 µM
CCCNC(=O)Nc1cccc(-c2nc3ncccc3o2)c1	20 µM	3.16 µM	1 µM	> 100 µM	2.82 µM	25.1 µM	3.16 µM	12.6 µM	15.8 µM	0.501 µM	3.98 µM	> 100 µM
